The source of these data is the NIST ThermoML archive (doi:10.1021/acs.jced.9b00170).

Numbers after ± are expanded uncertainties.

This series can be described thus: activity coefficient (dimensionless); of the first substance listed, at infinite dilution; xn = mol fraction of the nth substance listed. The following applies: 101.33 kPa, Liquid, Chromatography, x1 = 0.

For `Cc1ccccc1C` [1,2-dimethylbenzene] + CCCC[N+]1(C)CCCC1.O=S(=O)([N-]S(=O)(=O)C(F)(F)F)C(F)(F)F, the activity coefficient runs as follows: (313.1 K) 1.57 ± 0.06; (333.1 K) 1.59 ± 0.06; (353.1 K) 1.61 ± 0.06.

Take `Cc1ccccc1C` [1,2-dimethylbenzene] + CCCC[n+]1ccc(C)cc1.F[B-](F)(F)F: the activity coefficient (313.1 K) is 4.48 ± 0.2, the activity coefficient (333.1 K) came out at 4.55 ± 0.21 and the activity coefficient (353.1 K) was 4.59 ± 0.21.

Take `Cc1ccccc1C` [1,2-dimethylbenzene] + CCCCn1cc[n+](C)c1.F[B-](F)(F)F: the activity coefficient reads like this: (313.1 K) 4.55 ± 0.21; (333.1 K) 4.51 ± 0.21; (353.1 K) 4.49 ± 0.2.

As for `CCCCCCCCCC` [decane] + CCCC[N+]1(C)CCCC1.O=S(=O)([N-]S(=O)(=O)C(F)(F)F)C(F)(F)F, the activity coefficient reads like this: (313.1 K) 50.1 ± 2.3; (333.1 K) 45.3 ± 2.1; (353.1 K) 40.6 ± 1.9.

`CCCCCCCCCC` [decane] + CCCC[n+]1ccc(C)cc1.F[B-](F)(F)F: the activity coefficient by setting is: (313.1 K) 306 ± 14; (333.1 K) 234 ± 11; (353.1 K) 223 ± 11.

`CCCCCCCCCC` [decane] + CCCCn1cc[n+](C)c1.F[B-](F)(F)F: the activity coefficient runs as follows: (313.1 K) 177 ± 8.4; (333.1 K) 144 ± 6.8; (353.1 K) 125 ± 5.9.

With `CCCCCCC` [heptane] + CCCC[N+]1(C)CCCC1.O=S(=O)([N-]S(=O)(=O)C(F)(F)F)C(F)(F)F, the activity coefficient runs as follows: (313.1 K) 17 ± 0.79; (333.1 K) 15.3 ± 0.71; (353.1 K) 13.6 ± 0.62.

As for `CCCCCCC` [heptane] + CCCC[n+]1ccc(C)cc1.F[B-](F)(F)F, the activity coefficient stood at 84.8 ± 4 (313.1 K), 73.7 ± 3.5 (333.1 K) and 67.4 ± 3.1 (353.1 K).

Regarding `CCCCCCC` [heptane] + CCCCn1cc[n+](C)c1.F[B-](F)(F)F, the activity coefficient by setting is: (313.1 K) 78.7 ± 3.7; (333.1 K) 69 ± 3.2; (353.1 K) 62.2 ± 2.9.

With `CCCCCC` [hexane] + CCCC[N+]1(C)CCCC1.O=S(=O)([N-]S(=O)(=O)C(F)(F)F)C(F)(F)F, the activity coefficient runs as follows: (313.1 K) 12.6 ± 0.58; (333.1 K) 10.2 ± 0.47; (353.1 K) 9.5 ± 0.44.

As for `CCCCCC` [hexane] + CCCC[n+]1ccc(C)cc1.F[B-](F)(F)F, the activity coefficient is, setting by setting: (313.1 K) 59.8 ± 2.8; (333.1 K) 52.4 ± 2.4; (353.1 K) 49 ± 2.3.

As for `CCCCCC` [hexane] + CCCCn1cc[n+](C)c1.F[B-](F)(F)F, the activity coefficient runs as follows: (313.1 K) 56.7 ± 2.6; (333.1 K) 47.8 ± 2.2; (353.1 K) 45.2 ± 2.1.

For `CC1CCCCC1` [methylcyclohexane] + CCCC[N+]1(C)CCCC1.O=S(=O)([N-]S(=O)(=O)C(F)(F)F)C(F)(F)F, the activity coefficient (313.1 K) amounted to 8.53 ± 0.39, the activity coefficient (333.1 K) worked out at 7.52 ± 0.34 and the activity coefficient (353.1 K) came to 6.76 ± 0.31.

Consider `CC1CCCCC1` [methylcyclohexane] + CCCC[n+]1ccc(C)cc1.F[B-](F)(F)F, for which the activity coefficient (313.1 K) amounted to 41.5 ± 1.9, the activity coefficient (333.1 K) is 34.8 ± 1.6 and the activity coefficient (353.1 K) worked out at 33.1 ± 1.5.

For the compound `CC1CCCCC1` [methylcyclohexane] + CCCCn1cc[n+](C)c1.F[B-](F)(F)F, the activity coefficient turned out to be 45.7 ± 2.1 (313.1 K), 40.5 ± 1.9 (333.1 K) and 35.5 ± 1.6 (353.1 K).

In the case of `CC1CCCC1` [methylcyclopentane] + CCCC[N+]1(C)CCCC1.O=S(=O)([N-]S(=O)(=O)C(F)(F)F)C(F)(F)F, the activity coefficient reads like this: (313.1 K) 10.3 ± 0.47; (333.1 K) 9.08 ± 0.42; (353.1 K) 8.11 ± 0.37.

In the case of `CC1CCCC1` [methylcyclopentane] + CCCC[n+]1ccc(C)cc1.F[B-](F)(F)F, the activity coefficient is, setting by setting: (313.1 K) 31.3 ± 1.4; (333.1 K) 26.4 ± 1.2; (353.1 K) 25.8 ± 1.2.

`CC1CCCC1` [methylcyclopentane] + CCCCn1cc[n+](C)c1.F[B-](F)(F)F: the activity coefficient (313.1 K) was 35.6 ± 1.7, the activity coefficient (333.1 K) came out at 30.6 ± 1.4 and the activity coefficient (353.1 K) was determined as 28.8 ± 1.3.

Take `CCCCCCCCC` [nonane] + CCCC[N+]1(C)CCCC1.O=S(=O)([N-]S(=O)(=O)C(F)(F)F)C(F)(F)F: the activity coefficient is 33.1 ± 1.5 (313.1 K), 29.2 ± 1.4 (333.1 K) and 26.8 ± 1.2 (353.1 K).

As to `CCCCCCCCC` [nonane] + CCCC[n+]1ccc(C)cc1.F[B-](F)(F)F, the activity coefficient is, setting by setting: (313.1 K) 182 ± 8.6; (333.1 K) 153 ± 7.2; (353.1 K) 131 ± 6.2.

With `CCCCCCCC` [octane] + CCCC[N+]1(C)CCCC1.O=S(=O)([N-]S(=O)(=O)C(F)(F)F)C(F)(F)F, the activity coefficient runs as follows: (313.1 K) 23.7 ± 1.1; (333.1 K) 20.8 ± 0.96; (353.1 K) 19.1 ± 0.88.

As to `CCCCCCCC` [octane] + CCCC[n+]1ccc(C)cc1.F[B-](F)(F)F, the activity coefficient runs as follows: (313.1 K) 130 ± 6.1; (333.1 K) 107 ± 5; (353.1 K) 99.8 ± 4.7.

As to `CCCCCCCC` [octane] + CCCCn1cc[n+](C)c1.F[B-](F)(F)F, the activity coefficient reads like this: (313.1 K) 92.2 ± 4.3; (333.1 K) 83.7 ± 3.9; (353.1 K) 72.4 ± 3.4.

Consider `Cc1ccccc1` [toluene] + CCCC[N+]1(C)CCCC1.O=S(=O)([N-]S(=O)(=O)C(F)(F)F)C(F)(F)F, for which the activity coefficient reads like this: (313.1 K) 1.22 ± 0.04; (333.1 K) 1.29 ± 0.04; (353.1 K) 1.37 ± 0.05.

Consider `Cc1ccccc1` [toluene] + CCCC[n+]1ccc(C)cc1.F[B-](F)(F)F, for which the activity coefficient is, setting by setting: (313.1 K) 2.66 ± 0.12; (333.1 K) 2.69 ± 0.12; (353.1 K) 2.73 ± 0.12.

For the compound `Cc1ccccc1` [toluene] + CCCCn1cc[n+](C)c1.F[B-](F)(F)F, the activity coefficient (313.1 K) was found to be 3.28 ± 0.15, the activity coefficient (333.1 K) was 3.33 ± 0.15 and the activity coefficient (353.1 K) is 3.4 ± 0.15.
